Results as given in US6737383B1, “Herbicidal oxadiazolidines” (priority 1999, dated 2004).

How the values were obtained:
purple nutsedge = assay: Test B pre/postemergence purple nutsedge; type: in vivo, Cyperus rotundus
How it was run: (§1)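 Herbicidal effect was estimated by eye on a ten-point control scale after plants spent twelve to sixteen days in a greenhouse following soil or foliar treatment. Foliar sprays targeted plants at one to four leaves; all doses were formulated in a non-phytotoxic solvent with surfactant.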

wheat = assay: Test B pre/postemergence wheat; type: in vivo, Triticum aestivum
How it was run: as §1

smallflower flatsedge = assay: Test B flood test smallflower flatsedge; type: in vivo, Cyperus difformis; settings: for Plant response rating, S. Flatsedge (0 to 10 scale, 0 is no effect, 10 is complete control): Rate 62 g/ha; for Plant response rating, S. Flatsedge (0 to 10 scale, 0 is no effect, 10 is complete control) / S. Flatsedge plant response rating (0 to 10 scale, 0 is no effect, 10 is complete control): visual evaluation after twelve to sixteen days; for S. Flatsedge plant response rating (0 to 10 scale, 0 is no effect, 10 is complete control): Rate 125 g/ha, under heading Pre-emergence
How it was run: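 Read-out is a visual response score from 0 (no effect) to 10 (complete control), assigned by comparison with untreated controls. Treatment was applied at the 2-leaf stage, and plants stayed in the greenhouse for twelve to sixteen days before scoring.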

bedstraw = assay: Test B pre/postemergence bedstraw; type: in vivo, Galium aparine; settings: for Plant response rating, Bedstraw: scale of 0 to 10 where 0 is no effect and 10 is complete control
How it was run: as §1

[1] = Postemergence, Rate 250 g/ha, scale 0 to 10
[2] = Preemergence, Rate 62 g/ha, scale of 0 to 10 where 0 is no effect and 10 is complete control
[3] = Preemergence, Rate 125 g/ha, scale of 0 to 10 where 0 is no effect and 10 is complete control
[4] = Preemergence, Rate 250 g/ha, scale 0 to 10, 0 is no effect, 10 is complete control
[5] = Preemergence, Rate 500 g/ha, scale 0 to 10, 0 is no effect, 10 is complete control
[6] = Rate 62 g/ha, Postemergence, scale 0 to 10 (0 no effect, 10 complete control)
[7] = Rate 125 g/ha, Postemergence, scale 0 to 10, 0 is no effect, 10 is complete control
[8] = flood test species, Pre-emergence
[9] = Rate 250 g/ha, Pre-emergence (flood test species), scale 0 to 10, 0 is no effect, 10 is complete control
[10] = Rate 500 g/ha, Pre-emergence, flood test species, scale 0 to 10 (0 no effect, 10 complete control)
[11] = Postemergence, Rate 62 g/ha, scale of 0 to 10, 0 is no effect, 10 is complete control
[12] = Postemergence, Rate 125 g/ha, scale 0 to 10, 0 is no effect, 10 is complete control
[13] = Postemergence, Rate 500 g/ha, scale 0 to 10, 0 is no effect, 10 is complete control
[14] = Preemergence, Rate 125 g/ha, scale 0 to 10, 0 is no effect, 10 is complete control
[15] = Preemergence, Rate 500 g/ha, scale of 0 to 10 where 0 is no effect and 10 is complete control
[16] = Rate 250 g/ha, Postemergence, scale of 0 to 10 where 0 is no effect and 10 is complete control
[17] = Rate 500 g/ha, Pre-emergence section of Table B, 0 to 10 scale (0 no effect, 10 complete control)
[18] = Postemergence, Rate 62 g/ha, scale 0 to 10, 0 is no effect, 10 is complete control
[19] = Postemergence, Rate 125 g/ha, scale of 0 to 10 where 0 is no effect and 10 is complete control
[20] = Preemergence, Rate 250 g/ha, scale 0 to 10 (0 no effect, 10 complete control)
[21] = Rate 500 g/ha, Postemergence, scale 0 to 10, 0 is no effect, 10 is complete control

SMILES	Nutsedge plant response rating (purple nutsedge; [1])	Plant response rating, Nutsedge (purple nutsedge; [2])	Plant response rating, Nutsedge (purple nutsedge; [3])	Nutsedge plant response rating (purple nutsedge; [4])	Nutsedge plant response rating (purple nutsedge; [5])	Nutsedge plant response rating (purple nutsedge; [6])	Nutsedge plant response rating (purple nutsedge; [7])	Wheat plant response rating (wheat; [1])	Plant response rating, Wheat (wheat; [2])	Plant response rating, Wheat (wheat; [3])	Wheat plant response rating (wheat; [4])	Wheat plant response rating (wheat; [5])	Wheat plant response rating (wheat; [6])	Wheat plant response rating (wheat; [7])	Plant response rating, S. Flatsedge (0 to 10 scale, 0 is no effect, 10 is complete control) (smallflower flatsedge; [8])	S. Flatsedge plant response rating (0 to 10 scale, 0 is no effect, 10 is complete control) (smallflower flatsedge; flood test species)	S. Flatsedge plant response rating (smallflower flatsedge; [9])	S. Flatsedge plant response rating (smallflower flatsedge; [10])	Bedstraw plant response rating (bedstraw; [7])	Plant response rating, Bedstraw (bedstraw; Preemergence, Rate 62 g/ha)	also measured
CC(C)N(C(=O)n1oc(=O)n(CO)c1=O)c1ccc(F)cc1 [Compound 470]	0	0	0	0	0	0	0	0	0	0	0	0	0	0	0	0	0	0	0		Bedstraw plant response rating (bedstraw; [6]): 0
CC(C)N(C(=O)n1oc(=O)n(CC(=O)N(C)C)c1=O)c1ccc(Cl)cc1 [Compound 477]	0		0	0	0	0	0	0	0	0	0	0	0	0	0	0	0	0	0	0	Bedstraw plant response rating (bedstraw; [5]): 3
CC(C)N(C(=O)n1oc(=O)n(CC2CCC2)c1=O)c1ccc(F)cc1F [Compound 521]		0							0						0	0	0			0	Nutsedge plant response rating (purple nutsedge; [11]): 0; Nutsedge plant response rating (purple nutsedge; [12]): 0; Plant response rating, Nutsedge (purple nutsedge; [13]): 0; Nutsedge plant response rating (purple nutsedge; [14]): 0; Nutsedge plant response rating (0 to 10 scale) (purple nutsedge; Preemergence, Rate 250 g/ha): 0; Nutsedge plant response rating (purple nutsedge; [15]): 0; Plant response rating, Nutsedge (purple nutsedge; [16]): 0; Wheat plant response rating (wheat; [11]): 0; Wheat plant response rating (wheat; [12]): 0; Plant response rating, Wheat (wheat; [13]): 2; Wheat plant response rating (wheat; [14]): 0; Wheat plant response rating (0 to 10 scale) (wheat; Preemergence, Rate 250 g/ha): 0; Wheat plant response rating (wheat; [15]): 0; Plant response rating, Wheat (wheat; [16]): 0; S. Flatsedge plant response rating (smallflower flatsedge; [17]): 0; Bedstraw plant response rating (bedstraw; [14]): 0; Bedstraw plant response rating (0 to 10 scale) (bedstraw; Preemergence, Rate 250 g/ha): 0; Bedstraw plant response rating (bedstraw; [5]): 0
CC(C)N(C(=O)n1oc(=O)n(C(C)C)c1=O)c1ccncc1 [Compound 663]															0	0	0				Plant response rating, Nutsedge (purple nutsedge; [18]): 0; Nutsedge plant response rating (purple nutsedge; [19]): 0; Nutsedge plant response rating (purple nutsedge; [2]): 0; Nutsedge plant response rating (purple nutsedge; [3]): 0; Plant response rating, Nutsedge (purple nutsedge; [20]): 0; Plant response rating, Nutsedge (purple nutsedge; [15]): 0; Nutsedge plant response rating (purple nutsedge; [21]): 0; Plant response rating, Wheat (wheat; [18]): 0; Wheat plant response rating (wheat; [19]): 0; Wheat plant response rating (wheat; [2]): 0; Wheat plant response rating (wheat; [3]): 0; Plant response rating, Wheat (wheat; [20]): 0; Plant response rating, Wheat (wheat; [15]): 3; Wheat plant response rating (wheat; [21]): 0; S. Flatsedge plant response rating (smallflower flatsedge; [17]): 0
